Data: US20090275605A1, “3,11 b-cis-Dihydrotetrabenazine for the Treatment of a Proliferative Disease or an Inflammatory Disease” (CAMBRIDGE LABORATORIES (IRELAND) LIMITED, priority 2005, published 2009)
Where “and” joins values, the source holds several entries; their conditions need not be identical. Equal values may be shown once. Entries after “also recorded” stand apart in the source; their conditions may differ.

Experiments:
Sigma σ1 Receptor = molecular target: T1, Sigma σ1 Receptor (Homo sapiens, UniProt Q99720); assay: Sigma σ1 receptor radioligand binding ([3H]Haloperidol); conditions: for Percentage Inhibition of Specific Binding at Sigma-1 Receptor: 10 μM solutions, human jurkat cells, 8 nM [3H]Haloperidol
T1 construct: Source: Human jurkat cells; endogenous in cells; host or cells: Human Jurkat cells
T1 sequence (Q99720 whole entry): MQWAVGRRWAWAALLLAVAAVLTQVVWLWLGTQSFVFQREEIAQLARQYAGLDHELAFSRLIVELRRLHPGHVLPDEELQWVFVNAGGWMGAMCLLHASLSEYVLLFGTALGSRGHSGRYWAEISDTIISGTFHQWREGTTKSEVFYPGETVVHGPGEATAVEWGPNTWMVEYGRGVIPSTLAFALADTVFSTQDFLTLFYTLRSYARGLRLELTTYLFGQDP
Experimental: The four dihydrotetrabenazine isomers A, B, C and D subjected to specific binding assays to test their ability to bind to the sigma-1 and sigma-2 receptors. (a) Sigma σ1 Receptor: Reference: […] et al., Pharmacol. Exp. Ther., 289:251-260, (1999) Source: Human jurkat cells […] Vehicle: 1% DMSO Incubation time/Temp: 4 hours (25° C.

Sigma σ2 Receptor = molecular target: T2, Sigma σ2 Receptor (Rattus norvegicus, UniProt Q5U3Y7); assay: Sigma σ2 receptor radioligand binding ([3H]Ifenprodil); conditions: 10 μM solutions; Wistar rat brain; 3 nM [3H]Ifenprodil
T2 construct: Source: Wistar rat brain; from tissue; host or cells: Wistar rat brain
T2 sequence (Q5U3Y7 1-176): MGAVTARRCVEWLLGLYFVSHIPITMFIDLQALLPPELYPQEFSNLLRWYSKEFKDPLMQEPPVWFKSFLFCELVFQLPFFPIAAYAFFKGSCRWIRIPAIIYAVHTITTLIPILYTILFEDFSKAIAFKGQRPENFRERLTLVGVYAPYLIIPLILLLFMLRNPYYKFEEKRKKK
Experimental: The four dihydrotetrabenazine isomers A, B, C and D subjected to specific binding assays to test their ability to bind to the sigma-1 and sigma-2 receptors.
Reference: Hashimoto et al., Eur. J. Pharmacol., 236:159-163, (1993) Source: Wistar rat brain
Incubation time/Temp: 60 minutes @ 37° C.
Bmax: 1.3 pmole/mg protein Specific binding: 85% Quantitation method: Radioligand binding Significance criteria: ≧50% of maximum stimulation or inhibition

[1] = system: LPS/IFNγ stimulated human CD14+ monocytes; assay: LPS/IFN stimulated production of cytokines by human monocytes (CBA cytokine analysis); type: cell-based
Experimental: The compounds of the invention were tested to determine the extent to they can modulate the production of cytokines by human monocytes. Monocytes are precursors of macrophages and are a key source of inflammatory cytokines in a wide range of disease states.
The following treatment groups were set up.
MACS Buffer: 1×PBS pH 7.2, 2 mM EDTA (Sigma), 5% human AB serum Culture Media: 500 ml RPMI 1640 (Invitrogen), 5 ml Penstrep (Sigma), 5 ml L-glutamine (Invitrogen), 10 ml HEPES (Sigma), 5% autologous plasma. Compounds: Stock at 10 mM in absolute ethanol. LPS: Salmonella abortis at 1 mg/ml (Sigma, Cat # LI 887). IFNγ: Recombinant human at 10 μg/ml (BD Pharmacia, Cat # 554617). MACS CD14 positive selection beads and LS columns (Miltenyi Biotech). CD14: FITC antibody (Miltenyi Biotech) Buffy coat obtained from Bristol National Blood Services. 1 ml of blood should give 7×10^6 total cells.
Spin buffycoat at 3500 rpm, 10 min. Remove upper plasma layer and heat-inactivate at 56° C., 30 min. Spin at 3500 rpm, 10 min to remove heat-inactivated complement proteins etc.
1. Resuspend remaining buffycoat in an equal volume of RPMI 1 640 medium and mix by inversion. 2. Prewarm histopaque (Sigma) to room temperature (RT) and add 10 ml to a universal. 3. Gently overlay with 15 ml blood/medium mix. 4. Spin at 1600 rpm for 25 minutes at RT (no brake). 5. PBMC are separated into the interface layer between the medium and the histopaque, remove cells to a 50 ml Falcon and add 10 ml medium.
6. Spin at 1800 rpm for 10 min at RT.
7. Wash ×3 with 40 ml RPMI medium and resuspend in culture medium. Isolate CD14^+ Cells by Positive Selection with CD14^+ MicroBeads Work on ice, with pre-cooled solutions. 1. Determine cell numbers (313×10×5×10^4=1.565×10^8 total cells) 2. Remove 100 μl cell sample for Fluorescence-Activated Cell-Sorting (FACS) analysis (pre-selection sample). 3. Spin at 1800 rpm for 10 minutes at 4° C. Remove supernatant. 4. Resuspend pellet in 80 μl buffer per 1×10^7 total cells (2400 μL/total cells). 5. Add 20 μl CD14 MicroBeads per 1×10^7 total cells (400 μl/total cells). 6. Mix well and incubate for 15 minutes at 4-8° C. 7. Wash cells with 1-2 ml buffer, spin at 300×g, 10 minutes at 4° C. Remove supernatant. 8. Resuspend up to 1×10^8 cells in 500 μl buffer (1 ml/total cells). Magnetic Separation with LS Column 1. Place column in magnetic field of MACS® Separator. Rinse column with 3 ml of MACS buffer. 2. Add cell suspension to column. 3. Collect unlabelled cells which pass through. Wash column with 3×3 ml buffer, allowing the column reservoir to empty between each wash. Collect total effluent (unlabelled cell fraction). 4. Remove column from separator and place on collection tube. 5. Add 5 ml buffer to column, immediately flushing out fraction with magnetically labelled cells by applying column plunger. 6. Spin cells in MACS Buffer and resuspend cell pellet in media. 7. Perform cell count on positively selected cells. • 71×20×5×10^4=7.1×10^7 cells/ml. Have 1.75 ml∴1.24×10^8 total cells. 8. Take sample to check purity by FACS add 10 μl CD14-FITC antibody and incubate, 5 minutes at 4-8° C.
Prepare compounds at 10 mM in absolute ethanol. Dilute prior to culture in media to the required concentrations.
Isolated CD14^+ monocytes were cultured in 24-well plates at 1×10^6 cells/ml/well. The monocytes were cultured in the presence of the test compounds and controls at various dilutions as set out in the table below. After overnight incubation, LPS (10 μg/ml) and IFNγ (100 ng/ml) were added to stimulate monocyte activation and elevate CB2 expression. After 48 hours, the supernatants were removed for CBA cytokine analysis.
Bring all buffers to room temperature and vortex before use 1. Make up assay buffer by adding to 450 ml distilled H2O and mixing gently. Store at 4° C. 2. Make up biotin-conjugate mix by 600 μl of each biotin-conjugates into a universal. 3. Make up bead mix by adding 300 μl of each bead set. 4. […]

[2] = system: T cells (balb/c mouse spleen cells); assay: T cell proliferation (3H-thymidine incorporation, anti-CD3 coated plates); type: cell-based; conditions: plates 1-3 are triplicates
Experimental: The compounds of the invention were tested to determine the extent to they can inhibit T cell proliferation. T cells are responsible for co-ordinating the adaptive immune response and are drivers of inflammation in a wide range of disease states.
HBSS+2% HEPES buffer (500 ml+10 ml), Alpha MEM (500 ml)+2% HEPES (10 ml)+1% Pen/strep (5 ml)+2% L-Glutamine (10 ml)+50 μM 2-ME (500 μl) and Normal Mouse serum (NMS)
1. Coat 3×96 well plates columns 1-8, rows A-H with 100 μl anti-mouse CD3 at […] in PBS. 192 well in total, therefore made up 24 mls in PBS by adding 17 μl of stock at 1.44 mg/ml. Incubate 2 hours 37° C. 2. Pooled blood from 2 balb/c mice following cardiac puncture for preparation of NMS and removed spleens into HBSS+Hepes. 3. Placed blood at 37° C. for 30 minutes to clot, spun 3,000 rpm, 10 minutes in chilspin. Removed serum, filter sterilised and kept in fridge until use. 4. Transferred spleens to petri dishes containing 10 ml HBSS, used clean sterile wire mesh placed over spleen to release cells using a glass rod. Washed cells off mesh using pasteur pipette and transferred to a 15 ml tube. Spun at 1000 rpm for 10 minutes at room temperature (RT). 5. Resuspended cells, added 0.5 ml sterile DW to lyse RBC, mixed and immediately diluted in HBSS, transfered to 50 ml tube passing through cell strainer (70 μM) to remove debris, spun as above, washed cells once more in HBSS and finally resuspended in […] alpha MEM containing supplements (as above). 6. Cell counts—252 cells×2×5×10^4=2.52×10^7 cells/ml in 4 mls=10^8 cells in total. Dilute 2 mls to 25 mls to give a cell concentration of 2×10^6 cells/ml. 7. Added 250 μl NMS to cells to give a concentration of 1%. 8. Washed anti-CD3 coated plates 3×PBS. 9. Transferred 100 μl aliquots of cells to coated wells, rows A-H columns 1-8 of 3×96-well plates. Add equal volume of compounds diluted in a 96 well plate as shown below.
Transferred 3.5 μl compound at 10 mM to 346.5 μl media (1/100), transferred 35 μl of 1/100 dilution to 315 μl media (1/10) and so on down plate to give serial 1/10 dilutions of compound. Transferred 100 μl aliquots of different compound dilutions to wells of triplicate plates containing T cells.
Culture for 48 hours, then add a drop (16 μl) of ^3H-thymidine to each well and incubate overnight at 37° C. 5% CO2. Harvest. Measure ^3H-thymidine incorporation.

Question: `COc1cc2c(cc1OC)[C@@H]1C[C@@H](O)[C@H](CC(C)C)CN1CC2` (single isomer, unassigned) [Isomer A] was tested. Which “Percentage Inhibition of Specific Binding at Sigma-1 Receptor” value (Sigma σ1 Receptor) did it give?
Answer: 48%

Question: What about the “Percentage Inhibition of Specific Binding at Sigma-2 Receptor” value (Sigma σ2 Receptor) of the same compound?
Answer: 64%

Question: `COc1cc2c(cc1OC)[C@H]1C[C@H](O)[C@@H](CC(C)C)CN1CC2` (single isomer, unassigned) [Isomer B] was tested. Which “Percentage Inhibition of Specific Binding at Sigma-1 Receptor” value (Sigma σ1 Receptor) did it give?
Answer: 82%

Question: And the “binding to the sigma-1 receptor (in words)” value (Sigma σ1 Receptor; comparison of the four isomers)?
Answer: bind more strongly; also recorded: stronger binding

Question: And the “Percentage Inhibition of Specific Binding at Sigma-2 Receptor” value (Sigma σ2 Receptor)?
Answer: 64%

Question: And the “reduced production of IL-4” value ([1]; LPS/IFN stimulated monocytes, 100 μM to 10 pM, FIG. 2)?
Answer: at the majority of concentrations tested

Question: What about the “reduced production of IL-2” value ([1]; LPS/IFN stimulated monocytes, 100 μM to 10 pM, FIG. 3) of the same compound?
Answer: at all concentrations tested

Question: And the “reduced production of IL-5” value ([1]; LPS/IFN stimulated monocytes, 100 μM to 10 pM, FIG. 4)?
Answer: at the majority of concentrations tested

Question: And the “reduced production of IL-10” value ([1]; LPS/IFN stimulated monocytes, 100 μM to 10 pM, FIG. 5)?
Answer: at the majority of concentrations tested

Question: What about the “reduced production of IL-12” value ([1]; LPS/IFN stimulated monocytes, 100 μM to 10 pM, FIG. 6) of the same compound?
Answer: at all concentrations tested

Question: And the “production of a range of different cytokines in monocytes” value ([1]; monocytes stimulated by LPS/IFN, FIGS. 1 to 6)?
Answer: reduced the production

Question: And the “T cell Proliferation (3H-thymidine incorporation)” value (from here on “T cell Proliferation”) ([2]; listed as A = 100 μM, listed as RU350)?
Answer: 42 and 51.4 and 28

Question: And the “T cell Proliferation” value ([2]; listed as C = 1 μM, listed as RU350)?
Answer: 62557.5 and 58812.6 and 46179.1

Question: And the “T cell Proliferation” value ([2]; listed as D = 100 nM, listed as RU350)?
Answer: 63867.2 and 67792.8 and 54194.4

Question: What about the “T cell Proliferation” value ([2]; listed as E = 10 nM, listed as RU350) of the same compound?
Answer: 66290 and 70736.7 and 53277.2

Question: What about the “T cell Proliferation” value ([2]; listed as F = 1 nM, listed as RU350) of the same compound?
Answer: 49054.3 and 74224 and 58924.4

Question: And the “T cell Proliferation” value ([2]; listed as G = 100 pM, listed as RU350)?
Answer: 46056.3 and 60937.4 and 59965.8

Question: And the “T cell Proliferation” value ([2]; listed as H = 10 pM, listed as RU350)?
Answer: 52646.7 and 41897.1 and 57220.4

Question: How did the “T cell Proliferation” value ([2]; listed as B = 10 μM) turn out when `CCCCCCC(C)(C)c1cc(O)c2c(c1)OC(C)(C)C1CCC(=O)CC21` (stereo not shown) [Nab, Nabilone, reference compound] was run?
Answer: 72188.2 and 78370.5 and 40910.7

Question: What about the “T cell Proliferation” value ([2]; listed as C = 1 μM) of the same compound?
Answer: 48534.9 and 44235.7 and 52155.5

Question: And the “T cell Proliferation” value ([2]; listed as D = 100 nM)?
Answer: 65222 and 55348.5 and 41607.6

Question: What about the “T cell Proliferation” value ([2]; listed as E = 10 nM) of the same compound?
Answer: 44970.2 and 46765.1 and 36442

Question: What about the “T cell Proliferation” value ([2]; listed as F = 1 nM) of the same compound?
Answer: 36994.3 and 35152.2 and 37988.7

Question: And the “T cell Proliferation” value ([2]; listed as G = 100 pM)?
Answer: 37202.7 and 44920.7 and 36359.1

Question: What about the “T cell Proliferation” value ([2]; listed as H = 10 pM) of the same compound?
Answer: 38818.1 and 34530 and 39295.7
